Experimental data as given in patent US20260374739A1, “SMALL MOLECULAR WEIGHT CHEMICAL COMPOUND TO ANTAGONIZE EPH-EPHRIN TETRAMERIZATION AND INHIBIT BIDIRECTIONAL SIGNALING” (THE BOARD OF REGENTS OF THE UNIVERSITY OF TEXAS SYSTEM, priority 2022, published 2026).
Marks after values point to notes of the source that are not given here.

How the values were obtained:
[1] = target: T1, EphB1-EphrinB2 (EB2) (Rattus norvegicus, UniProt P09759); experiment: Alpha assay EphB1-EphrinB2 (EB2) interaction; type: binding, mouse EB2
T1 construct: rat EphB1-Fc residues 18-538; mouse EB2-His residues 18-232; purchased R&D Systems (EphB1-Fc); Sino Biologicals (EB2-His)
T1 sequence (P09759 18-538): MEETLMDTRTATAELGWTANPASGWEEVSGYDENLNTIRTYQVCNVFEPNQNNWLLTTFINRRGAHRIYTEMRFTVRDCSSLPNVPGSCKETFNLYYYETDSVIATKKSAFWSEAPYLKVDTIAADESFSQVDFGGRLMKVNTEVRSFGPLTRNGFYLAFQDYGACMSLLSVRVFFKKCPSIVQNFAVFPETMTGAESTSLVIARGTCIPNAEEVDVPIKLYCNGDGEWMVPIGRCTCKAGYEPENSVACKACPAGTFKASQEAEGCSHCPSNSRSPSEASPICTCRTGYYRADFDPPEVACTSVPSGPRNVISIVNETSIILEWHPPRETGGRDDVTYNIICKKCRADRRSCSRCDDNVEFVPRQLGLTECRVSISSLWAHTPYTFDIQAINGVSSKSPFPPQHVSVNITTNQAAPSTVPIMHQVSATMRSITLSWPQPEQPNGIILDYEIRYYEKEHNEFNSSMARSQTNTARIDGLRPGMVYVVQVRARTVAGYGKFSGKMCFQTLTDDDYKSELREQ
Excerpt: A chemiluminescent AlphaScreen™ bead-based proximity assay suitable for HTS was developed to measure the receptor-ligand interaction formed between EphB1 and EphrinB2 (EB2) ectodomains (FIG. 3). Here, when singlet oxygen molecules generated by high energy irradiation of donor beads travel over a constrained distance to excite acceptor beads, a chemiluminescent signal is generated and detected. If an analyte interferes with the EphB1-EB2 protein-protein interaction, close proximity of the donor and acceptor beads will be disrupted resulting in diminished or lost energy transfer and reduced acceptor bead emission.
Test was conducted in the Alpha assay, to see if purified soluble Reelin (previously shown to bind EphB1 ectodomain) can interfere with EphB1-EB2 binding.
The EphB1-EB2 screen was conducted using 0.8 nM of each protein, 50 ng beads per well, and assessed at 5 μM a library of −240,000 small, drug-like chemicals. […] They were also tested in a counter screen designed to identify non-specific compounds. Here, a single-protein Alpha assay was set up using a dual-tagged EphB2-His-Fc ectodomain protein that can bind both donor and acceptor beads to bring them into proximity. If a selected compound simply absorbs the chemiluminescent signal or interferes with bead function/binding or protein folding, it was hypothesized that it would also reduce signals in the single protein assay, and would consider it a false positive.

[2] = target: T2, EphrinB2-EphB1 (Homo sapiens, UniProt P54762); experiment: Octet 80 sec association/500 sec dissociation, immobilized human EphrinB2-Fc binding to soluble human EphB1-His; settings: immobilized human EphrinB2, 25 nM soluble human EphB1; for EphB1 Inhibition Percent, Inhibition of Association ONLY: at 3.2 μM and 80 seconds; for EphB1 Inhibition Percent, Inhibition of Association-Dissociation: at 3.2 μM and 580 seconds
T2 construct: soluble human EphB1-His, EphB2-His, and EphB4-His ectodomains; commercially available human EphrinB1-Fc (EB1), EphrinB2-Fc (EB2), and EphrinB3-Fc (EB3) ectodomain proteins; purchased
T2 sequence (P54762 18-540 limits assumed): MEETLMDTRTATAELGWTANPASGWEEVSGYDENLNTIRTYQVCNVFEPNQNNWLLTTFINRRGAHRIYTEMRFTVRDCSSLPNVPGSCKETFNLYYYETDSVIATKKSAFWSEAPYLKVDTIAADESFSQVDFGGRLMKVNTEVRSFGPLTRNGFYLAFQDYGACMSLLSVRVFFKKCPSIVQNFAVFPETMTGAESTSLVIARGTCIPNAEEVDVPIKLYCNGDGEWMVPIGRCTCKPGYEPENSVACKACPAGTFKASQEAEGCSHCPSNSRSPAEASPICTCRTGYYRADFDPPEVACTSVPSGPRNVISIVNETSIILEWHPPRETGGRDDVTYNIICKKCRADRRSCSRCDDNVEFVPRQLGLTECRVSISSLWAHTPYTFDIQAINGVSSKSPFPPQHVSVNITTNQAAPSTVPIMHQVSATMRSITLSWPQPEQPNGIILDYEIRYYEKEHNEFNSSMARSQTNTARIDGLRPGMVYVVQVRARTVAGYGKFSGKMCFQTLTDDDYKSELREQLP
How it was run: (§1)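 EphrinB2-Fc captured on AHC biosensors, then soluble His-tagged EphB ectodomain (25 nM for % inhibition runs) associated 80 s and dissociated 500 s in PBS, 0.05% Tween-20, 1% DMSO ± compound. Compounds tested at 0.1–3.2 μM with a 10 μM max standard; IC50 from AUC of full traces or at 75 s and 135 s.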

[3] = target: T3, EphrinB2-EphB2 (Homo sapiens, UniProt P29323); experiment: Octet 80 sec association/500 sec dissociation, immobilized human EphrinB2-Fc binding to soluble human EphB2-His; settings: immobilized human EphrinB2, 25 nM soluble human EphB2; for EphB2 Inhibition Percent, Inhibition of Association ONLY: at 3.2 μM and 80 seconds; for EphB2 Inhibition Percent, Inhibition of Association-Dissociation: at 3.2 μM and 580 seconds
T3 construct: soluble human EphB1-His, EphB2-His, and EphB4-His ectodomains; commercially available human EphrinB1-Fc (EB1), EphrinB2-Fc (EB2), and EphrinB3-Fc (EB3) ectodomain proteins; purchased
T3 sequence (P29323 19-543 limits assumed): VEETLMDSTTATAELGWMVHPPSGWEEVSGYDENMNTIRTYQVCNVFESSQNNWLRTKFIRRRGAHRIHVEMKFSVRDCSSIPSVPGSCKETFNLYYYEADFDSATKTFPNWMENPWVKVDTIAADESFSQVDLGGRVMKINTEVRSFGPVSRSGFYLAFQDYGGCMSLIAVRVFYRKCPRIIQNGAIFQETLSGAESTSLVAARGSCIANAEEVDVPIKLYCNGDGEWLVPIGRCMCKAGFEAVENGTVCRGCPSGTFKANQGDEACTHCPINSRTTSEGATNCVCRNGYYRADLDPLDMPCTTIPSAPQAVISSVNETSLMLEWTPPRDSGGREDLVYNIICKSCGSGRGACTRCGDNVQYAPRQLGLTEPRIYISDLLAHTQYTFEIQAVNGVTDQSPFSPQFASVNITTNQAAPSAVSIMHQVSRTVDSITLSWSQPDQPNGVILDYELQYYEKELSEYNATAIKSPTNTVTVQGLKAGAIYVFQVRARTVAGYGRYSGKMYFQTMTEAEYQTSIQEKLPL
How it was run: as §1

[4] = target: T3, EphrinB2-EphB2; experiment: Octet tetramerization inhibition, immobilized human EphrinB2 binding to 50 nM soluble human EphB2
[5] = target: T4, EphrinB2-EphB4 (Homo sapiens, UniProt P54760); experiment: Octet 80 sec association/500 sec dissociation, immobilized human EphrinB2-Fc binding to soluble human EphB4-His; settings: immobilized human EphrinB2, 25 nM soluble human EphB4; for EphB4 Inhibition Percent, Inhibition of Association ONLY: at 3.2 μM and 80 seconds; for EphB4 Inhibition Percent, Inhibition of Association-Dissociation: at 3.2 μM and 580 seconds
T4 construct: soluble human EphB1-His, EphB2-His, and EphB4-His ectodomains; commercially available human EphrinB1-Fc (EB1), EphrinB2-Fc (EB2), and EphrinB3-Fc (EB3) ectodomain proteins; purchased
T4 sequence (P54760 16-539 limits assumed): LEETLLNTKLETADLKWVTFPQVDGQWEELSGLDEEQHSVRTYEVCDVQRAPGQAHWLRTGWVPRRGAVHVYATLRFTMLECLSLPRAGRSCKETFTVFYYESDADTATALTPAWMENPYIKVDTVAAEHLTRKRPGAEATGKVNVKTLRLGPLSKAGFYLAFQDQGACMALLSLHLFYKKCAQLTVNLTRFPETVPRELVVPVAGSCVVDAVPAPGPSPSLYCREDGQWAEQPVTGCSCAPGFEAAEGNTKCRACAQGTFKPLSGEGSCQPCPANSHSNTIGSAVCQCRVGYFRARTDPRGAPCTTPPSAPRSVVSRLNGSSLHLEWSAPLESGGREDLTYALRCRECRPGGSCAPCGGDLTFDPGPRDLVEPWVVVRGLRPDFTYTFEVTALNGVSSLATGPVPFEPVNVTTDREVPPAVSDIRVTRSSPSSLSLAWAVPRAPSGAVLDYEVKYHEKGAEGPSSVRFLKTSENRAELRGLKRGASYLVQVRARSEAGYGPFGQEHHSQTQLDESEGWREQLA
How it was run: as §1

[6] = Absolute Association IC50 (300 sec), Table A, EphrinB2-EphB2
[7] = Absolute Dissociation IC50 (450 sec), Table A, EphrinB2-EphB2
[8] = Relative AUC/IC50, Table A, EphrinB2-EphB2, compound 7: association only
[9] = Relative Association IC50 (300 sec), Table A, EphrinB2-EphB2
[10] = Absolute AUC/IC50, Table A, EphrinB2-EphB2
[11] = Relative Dissociation IC50 (450 sec), Table A, EphrinB2-EphB2

CC1CCN(Cc2cc(Br)c(O)c3ncccc23)CC1 [Compound 66, 7-bromo-5-((4-methylpiperidin-1-yl)methyl)quinolin-8-ol, reference compound]
antagonism of EphB1-EB2 [1]: did not pass through the Alpha confirmation and counter screens

Oc1ccc(CN2CCN(c3ccc(Br)cn3)CC2)c2cccnc12 [Compound 34, 5-((4-(5-bromopyridin-2-yl)piperazin-1-ium-1-yl)methyl)-8-hydroxyquinolin-1-ium chloride]
EphB1 Inhibition Percent, Inhibition of Association ONLY [2]: 46.4%
EphB1 Inhibition Percent, Inhibition of Association-Dissociation [2]: 58.6%
EphB2 Inhibition Percent, Inhibition of Association ONLY [3]: 69.4%
EphB2 Inhibition Percent, Inhibition of Association-Dissociation [3]: 81.6%
IC50 [4, 6]: 2820 nM
IC50 [4, 7]: 2630 nM
IC50 [4, 8]: 1700 nM
IC50 [4, 9]: 2090 nM
EphB4 Inhibition Percent, Inhibition of Association ONLY [5]: 20.9%
EphB4 Inhibition Percent, Inhibition of Association-Dissociation [5]: 36.9%

COc1ccc(N2CCN(Cc3ccc(O)c4ncccc34)CC2)cc1 [Compound 72, 5-((4-(4-methoxyphenyl)piperazin-1-yl)methyl)quinolin-8-ol]
EphB1 Inhibition Percent, Inhibition of Association ONLY [2]: 30.0%
EphB1 Inhibition Percent, Inhibition of Association-Dissociation [2]: 44.5%
EphB2 Inhibition Percent, Inhibition of Association ONLY [3]: 39.4%
EphB2 Inhibition Percent, Inhibition of Association-Dissociation [3]: 60.2%
tetramerization inhibitor activity [4]: exhibit strong IC50 values
disruption of unsurmountable tetramer ([4]; 0.8-3.2 μM): ability to disrupt some of the unsurmountable tetramer
IC50 [4, 10]: 2290 nM
IC50 [4, 6]: 2510 nM
IC50 [4, 7]: 1510 nM
IC50 [4, 9]: 1200 nM
IC50 [4, 11]: 1070 nM
EphB4 Inhibition Percent, Inhibition of Association ONLY [5]: 19.8%
EphB4 Inhibition Percent, Inhibition of Association-Dissociation [5]: 33.2%

Reelin: purified soluble Reelin (previously shown to bind EphB1 ectodomain)
antagonism of EphB1-EB2 [1]: almost complete inhibition at 200 nM

COc1ccc(N2CCN(Cc3cc(I)c(O)c4ncccc34)CC2)cc1 [Compound 74, 7-iodo-5-((4-(4-methoxyphenyl)piperazin-1-yl)methyl)quinolin-8-ol]
EphB1 Inhibition Percent, Inhibition of Association ONLY [2]: 47.2%
EphB1 Inhibition Percent, Inhibition of Association-Dissociation [2]: 58.2%
EphB2 Inhibition Percent, Inhibition of Association ONLY [3]: 50.6%
EphB2 Inhibition Percent, Inhibition of Association-Dissociation [3]: 70.0%
tetramerization inhibitor activity [4]: exhibit strong IC50 values
IC50 [4, 10]: 400 nM
IC50 [4, 6]: 560 nM
IC50 [4, 7]: 420 nM
EphB4 Inhibition Percent, Inhibition of Association ONLY [5]: 21.0%
EphB4 Inhibition Percent, Inhibition of Association-Dissociation [5]: 43.4%

COc1ccc2[nH]cc(C(=O)N3CCN(c4ccc(Br)cc4)CC3)c2c1 [Compound 65, (4-(4-bromophenyl)piperazin-1-yl)(5-methoxy-1H-indol-3-yl)methanone]
EphB1 Inhibition Percent, Inhibition of Association ONLY [2]: 22.2%
EphB1 Inhibition Percent, Inhibition of Association-Dissociation [2]: 28.6%
EphB2 Inhibition Percent, Inhibition of Association ONLY [3]: 5.6%
EphB2 Inhibition Percent, Inhibition of Association-Dissociation [3]: 46.4%
IC50 [4, 10]: > 1600 nM
IC50 [4, 6]: > 1600 nM
IC50 [4, 7]: > 1600 nM
IC50 [4, 8]: > 1600 nM
IC50 [4, 9]: > 1600 nM
IC50 [4, 11]: > 1600 nM
EphB4 Inhibition Percent, Inhibition of Association ONLY [5]: 20.2%
EphB4 Inhibition Percent, Inhibition of Association-Dissociation [5]: 19.0%

Cc1ccc2c(CN3CCOCC3)cc(Br)c(O)c2n1 [Compound 57, 7-bromo-2-methyl-5-(morpholinomethyl)quinolin-8-ol]
EphB1 Inhibition Percent, Inhibition of Association ONLY [2]: 0*%
EphB1 Inhibition Percent, Inhibition of Association-Dissociation [2]: 15.3%
EphB2 Inhibition Percent, Inhibition of Association ONLY [3]: 1.4%
EphB2 Inhibition Percent, Inhibition of Association-Dissociation [3]: 20.3%
IC50 [4, 10]: > 3200 nM
IC50 [4, 6]: > 3200 nM
IC50 [4, 7]: > 3200 nM
IC50 [4, 8]: 2240 nM
IC50 [4, 9]: > 3200 nM
IC50 [4, 11]: > 3200 nM
IC50 ([4]; tetramerization inhibitor IC50 (relative), association step, surmountable tetramer): > 3000 nM
EphB4 Inhibition Percent, Inhibition of Association ONLY [5]: 0*%
EphB4 Inhibition Percent, Inhibition of Association-Dissociation [5]: 8.7%
